Values of other authors as cited in publication PMC9600270 (Cancers, 2022).
Several values for one entry are separate records, joined by “and”; a condition that tells them apart may be missing. Equal entries are not always repeated. Bridges are numbered along the chain shown (N, C = ends). Where no end group is shown, it is not given here.

Key:
[1] = test system: RMS cells; details: TmR-targeted vincristine-loaded liposomes
From the text: We previously selected RMS-targeting peptides by in vitro and in vivo phage display and tested them for their potential to increase vincristine-loaded liposomes’ accumulation in RMS mouse xenografts. […] We hypothesized that a targeting peptide with a stronger binding to RMS might be needed to achieve increased accumulation in RMS tumors in vivo. Here, we selected from the literature peptides binding to receptors k ... || We previously tested the peptide TmR for its potential to increase vincristine-loaded liposomes’ accumulation in RMS mouse xenografts. […] Here, we aimed at selecting a peptide with stronger binding to RMS cells than TmR, and F3 peptide bound to the four RMS cell lines tested 3- to 5-fold more than TmR peptide. Importantly, F3 pe ...

[2] = test system: RMS mouse xenografts; design: method as in PMID 28447920; details: TmR-targeted vincristine-loaded liposomes

KRDRGGGCMGTINTRTRRC (disulfide 8-19 (inferred)) [TmR, Furin-targeting RMS peptide, modified version of RMS-P3]
Increase of RMS binding of liposomes in vitro [1]: 5.4 fold and 5 fold | Tumor accumulation in vivo compared to non-targeted liposomes [2]: did not further increase
